For series [1], the system named is SK-MEL-1. Kind of series: Antiproliferative activity, MTT assay, SK-MEL-1 cells. Format: cell-based, human. The conditions noted are these: for IC50: Homo sapiens, SK-MEL-1, 72 h, MTT, mean ± SE, at least three independent experiments. The source says:
(§1) In Table 1, we summarize the antiproliferative activity of the 15 novel 2-arylalkylamino-4-amino-5-(3′,4′,5′-trimethoxybenzoyl)thiazole derivatives 8a–o against human leukemia (U-937) and melanoma (SK-MEL-1) tumor cells lines.
(§2) Human U-937 and SK-MEL-1 cell lines were from the German Collection of Microorganisms and Cell Cultures (Braunschweig, Germany; DSMZ No: ACC 5 and ACC 303, respectively). The U-937 is a myeloid leukemia cell line isolated from a histiocytic lymphoma. SK-MEL-1 is a melanoma cell line. Cells were cultured in suspension in RPMI 1640 medium supplemented with 10% (v/v) fetal bovine serum and antibiotics (100 μg mL^−1 streptomycin and 100 U mL^−1 penicillin), at 37 °C in a humidified atmosphere containing 5% CO2. The trypan blue exclusion method was used for counting the cells by a hemocytometer, and cell viability was always greater than 95% in all experiments. Compounds were dissolved in DMSO, and further dilutions were made in culture medium just before use. […] The effects on cell viability of synthetic compounds were determined using a colorimetric assay with the reduction of 3-(4,5-dimethyl-2-thiazolyl-)-2,5-diphenyl-2H-tetrazolium bromide (MTT) as previously described. Briefly, 5 × 10^3 cells were seeded in 96-well microculture plates with increasing concentrations of compounds for 72 h. Then, MTT (0.5 mg mL^−1) was added and incubated for 4 h, and the reaction was stopped with 20% sodium dodecyl sulfate. A570 was used as a measure of cell viability. Concentrations inducing a 50% inhibition of cell growth were determined graphically by nonlinear regression using the curve-fitting algorithm of GraphPad Prism 4.0 (GraphPad Inc La Jolla, CA, USA).
In general terms: Formazan colour is commonly taken as a measure of viable cells.

For series [2], the system named is U-937. Briefly: Antiproliferative activity, MTT assay, U-937 cells. Format: cell-based, human. The settings on record: for IC50: Homo sapiens, U-937, 72 h, MTT, mean ± SE, at least three independent experiments; for fold more potent than p-methoxy counterpart 8j: antiproliferative activity, cell line not specified (U-937 and SK-MEL-1).
Text: as §1, §2

Turning to `COc1cccc2c1C(=O)c1c(O)c3c(c(O)c1C2=O)C[C@@](O)(C(=O)CO)C[C@@H]3O[C@H]1C[C@H](N)[C@H](O)[C@H](C)O1` [Doxorubicin, reference compound], the IC50 stood at 0.274 ± 0.07 µM in series [1] and 0.083 ± 0.021 µM in series [2].
The compound `COc1cc(C(=O)c2sc(NCc3ccccc3)nc2N)cc(OC)c1OC` [8a, (4-Amino-2-(benzylamino)thiazol-5-yl)(3,4,5-trimethoxyphenyl)methanone] showed a melting point of 147 to 149 °C. Half-maximal inhibition in series [1] (IC50) required 14.2 ± 9.7 µM. Moreover, half-maximal inhibition in series [2] (IC50) was put at 21.1 ± 5.1 µM.
With `COc1cc(C(=O)c2sc(NCc3ccc(Br)cc3)nc2N)cc(OC)c1OC` [8g, (4-Amino-2-((4-bromobenzyl)amino)thiazol-5-yl)(3,4,5-trimethoxyphenyl)methanone], the melting point was in the range of 154 to 157 °C. In addition, the IC50 in series [1] is 15.7 ± 4.9 µM. Also, half-maximal inhibition in series [2] (IC50) required 12.9 ± 3.3 µM.
The matching figures for `COc1cc(C(=O)c2sc(NCc3ccc(C)cc3)nc2N)cc(OC)c1OC` [8h, (4-Amino-2-((4-methylbenzyl)amino)thiazol-5-yl)(3,4,5-trimethoxyphenyl)methanone]: 145 to 147 °C, 19 ± 9.4 µM and 15.4 ± 4.9 µM.
In the case of `COc1cc(C(=O)c2sc(NCCCc3ccccc3)nc2N)cc(OC)c1OC` [8c, (4-Amino-2-((3-phenylpropyl)amino)thiazol-5-yl)(3,4,5-trimethoxyphenyl)methanone], the IC50 came out at 16.7 ± 7 µM in series [1] and 10.7 ± 2.8 µM in series [2]. The “increase in potency relative to 8a and 8b” value in series [2] (U-937 cells) came to 2 fold.
Turning to `COc1ccc(-c2nc(N)c(C(=O)c3cc(OC)c(OC)c(OC)c3)s2)cc1` [1a, reference compound], the concentration for half-maximal inhibition (IC50) came out at 48.3 ± 4.6 µM in series [1] and 34.3 ± 2.2 µM in series [2].
As for `COc1cc(C(=O)c2sc(NCc3ccc(Cl)cc3)nc2N)cc(OC)c1OC` [8e, (4-Amino-2-((4-chlorobenzyl)amino)thiazol-5-yl)(3,4,5-trimethoxyphenyl)methanone], the melting point lay within 156 to 159 °C. The same compound had an IC50 in series [1] of 8.3 ± 5.5 µM. Also, in series [1] (SK-MEL-1 cells), the “fold more potent than 8f” value is 1.5 fold. In series [2], this compound returned an IC50 of 8.7 ± 5.4 µM.
`COc1cc(C(=O)c2sc(NCCc3ccccc3)nc2N)cc(OC)c1OC` [8b, (4-Amino-2-(phenethylamino)thiazol-5-yl)(3,4,5-trimethoxyphenyl)methanone] gave a melting point of 135 to 138 °C. The compound further yielded an IC50 in series [1] of 20.5 ± 6.9 µM. Inhibition in series [2] was half-maximal at 19.3 ± 5.6 µM (IC50).
The compound `COc1ccc(CNc2nc(N)c(C(=O)c3cc(OC)c(OC)c(OC)c3)s2)cc1` [8j, (4-Amino-2-((4-methoxybenzyl)amino)thiazol-5-yl)(3,4,5-trimethoxyphenyl)methanone] displayed a melting point of 131 to 135 °C. The same compound registered an IC50 in series [1] of 22.9 ± 13.7 µM. Besides, the IC50 in series [2] came to 23.8 ± 5.2 µM.
For the compound `COc1ccccc1CNc1nc(N)c(C(=O)c2cc(OC)c(OC)c(OC)c2)s1` [8m, (4-Amino-2-((2-methoxybenzyl)amino)thiazol-5-yl)(3,4,5-trimethoxyphenyl)methanone], half-maximal inhibition in series [1] (IC50) was put at 10.4 ± 2.8 µM. In series [2], the half-maximal inhibitory concentration (IC50) amounted to 13.6 ± 5.3 µM and the “fold more potent than p-methoxy counterpart 8j” value was 2 fold.
On to `COc1ccc(CNc2nc(N)c(C(=O)c3cc(OC)c(OC)c(OC)c3)s2)cc1OC` [8n, (4-Amino-2-((3,4-dimethoxybenzyl)amino)thiazol-5-yl)(3,4,5-trimethoxyphenyl)methanone], for which the melting point is 107 to 111 °C. In series [1], this compound came in with a concentration for half-maximal inhibition (IC50) of 32.7 ± 7.7 µM. Further, in series [2], the midpoint of inhibition, the IC50, lay at 28.7 ± 10.5 µM.
Consider `COc1cc(C(=O)c2sc(NCc3ccc4c(c3)OCO4)nc2N)cc(OC)c1OC` [8o, (4-Amino-2-((benzo[d][1,3]dioxol-5-ylmethyl)amino)thiazol-5-yl)(3,4,5-trimethoxyphenyl) methanone], for which the melting point was in the range of 156 to 158 °C. Half-maximal inhibition in series [1] (IC50) required 24.7 ± 1 µM. In series [2], the 50% inhibitory concentration (IC50) amounted to 27 ± 0.9 µM.
Consider `COc1cc([C@@H]2c3cc4c(cc3[C@@H](O[C@@H]3O[C@@H]5CO[C@@H](C)O[C@H]5[C@H](O)[C@H]3O)[C@H]3COC(=O)[C@H]23)OCO4)cc(OC)c1O` [Etoposide, reference compound], for which the values for the concentration for half-maximal inhibition (IC50) in series [1] and in series [2] were 6.3 ± 1 µM and 2.1 ± 0.4 µM, respectively.
Consider `COc1cc(C(=O)c2sc(NCc3cccc(C)c3)nc2N)cc(OC)c1OC` [8i, (4-Amino-2-((3-methylbenzyl)amino)thiazol-5-yl)(3,4,5-trimethoxyphenyl)methanone], for which the melting point was in the range of 150 to 152 °C. In series [1], this compound came in with a concentration for half-maximal inhibition (IC50) of 16.7 ± 5.6 µM. Inhibition in series [2] was half-maximal at 18.1 ± 6.4 µM (IC50).
In turn, `COc1cc(C(=O)c2sc(NCc3ccc(F)cc3)nc2N)cc(OC)c1OC` [8d, (4-Amino-2-((4-fluorobenzyl)amino)thiazol-5-yl)(3,4,5-trimethoxyphenyl)methanone] displayed a melting point of 132 to 134 °C. The compound further showed a half-maximal inhibitory concentration (IC50) in series [1] of 51 ± 1.4 µM. In addition, in series [2], the IC50 amounted to 39.1 ± 4.2 µM.
With `COc1cccc(CNc2nc(N)c(C(=O)c3cc(OC)c(OC)c(OC)c3)s2)c1` [8l, (4-Amino-2-((3-methoxybenzyl)amino)thiazol-5-yl)(3,4,5-trimethoxyphenyl)methanone], the melting point was 125 to 128 °C. 12.4 ± 4.8 µM corresponded to half-maximal inhibition in series [1] (IC50). In series [2], 12.3 ± 6.1 µM corresponded to half-maximal inhibition (IC50) and the “fold more potent than p-methoxy counterpart 8j” value worked out at 2 fold.
Take `COc1ccc(Nc2nc(N)c(C(=O)c3cc(OC)c(OC)c(OC)c3)s2)cc1` [2a, reference compound]: the IC50 in series [1] stood at 5.2 ± 1.4 µM; in series [2], 0.484 ± 0.368 µM.

The term IC50 denotes the concentration that inhibits the measured activity by half. The term melting point denotes the temperature of the solid-liquid transition.

These data come from paper PMC7248693, “Synthesis and Biological Evaluation of 2-Substituted Benzyl-/Phenylethylamino-4-amino-5-aroylthiazoles as Apoptosis-Inducing Anticancer Agents” (Molecules, 2020).
